{"source": "patent US12485127B2", "about": "“Compositions and methods for treatment and prevention of actinic keratosis using copper chlorin” (CHL Industries, LLC, priority 2024, dated 2025)", "key": {"[1]": {"test_system": "HPV-31 (strain: HQ53768.1)", "assay": "HPV-31 genome plasmid replication assay in C-33 A cells", "type": "cell-based, human papillomavirus", "conditions": "for EC50 / EC90: host cell line C-33A", "experimental": "(§1) The in vitro testing of the chlorin compounds and the positive control for antiviral cytopathic effect (CPE) was conducted through The National Institute of Allergy and Infectious Diseases (NIAID) NCEA Program. The in vitro testing was done by the method described by Beadle J R, Valiaeva N, Yang G, Yu J H, Broker T R, Aldern K A, et al. Synthesis and Antiviral Evaluation of Octadecyloxyethyl Benzyl 9-[(2-Phosphonomethoxy)ethyl]guanine (ODE-Bn-PMEG), a Potent Inhibitor of Transient HPV DNA Amplification. J Med Chem. 2016; 59(23):10470-8. PubMed PMID: 27933957. This method uses an HPV-11 replicon assay. The replicon (pMP619) is transfected into C-33 A cells grown as monolayers in 384-well plates. At 48 hours post transfection, the enzymatic activity of the destabilized NanoLuc reporter is assessed with NanoGlo reagent. […] The host C-33 A cells are epithelial cells originally isolated from the cervix of a uterine cancer patient. For reasons previously mentioned in this application, in vitro testing of compounds for potential antiviral activity against HPV strains cannot use human keratinocytes as the host cells due to the variable HPV replication activity with this cell line.\n(§2) The EC50 (or Effective Concentration 50) is the concentration of the test compound in micromoles that reduces virus replication by 50%. The EC90 (or Effective Concentration 90) is the concentration of the test compound in micromoles that reduces virus replication by 90%. CC50 (or Cytotoxic Concentration 50) is the concentration of the test compound in micromoles that reduces the cell viability of the virus host cell by 50%. The SI50 (or Selectivity Index 50) is a measure of both safety and efficacy or therapeutic index and is calculated by dividing the CC50 by the EC50. The SI90 (Selectivity Index 90) is calculated by dividing the CC50 by the EC90.\n(§3) The in vitro test method used to assess activity of copper chlorins according to embodiments herein against HPV-18 and HPV-31 used the same replication and quantification method described previously for Table 1 results but with HPV-18 and HPV-31 genome plasmids. Results of the in vitro testing of three of the same copper chlorins as used in Table 1, as well as the same control, against HPV 18 and HPV 31 are summarized in Table 2 and Table 3 below."}, "[2]": {"test_system": "HPV-11 (HE611260.1 strain)", "assay": "HPV-11 replicon assay (NanoLuc reporter) in C-33 A cells", "type": "cell-based, human papillomavirus", "conditions": "for EC90 / EC50: host cell line C-33A; for EC50: 48 hours post transfection", "experimental": "as §1\nThe control compound, PMEG, has a molecular weight of 289.188 g/mol. The molecular weight of the copper chlorin compounds evaluated are (1) 661.5 g/mol for disodium copper isochlorin e4; (2) 710.5 g/mol for trisodium copper chlorin p6; (3) 724.15 g/mol for trisodium copper chlorin e6; and (4) 740 g/mol for trisodium copper rhodin g7. The antiviral test results in Table 1 for each treatment composition and the control are reported in micromoles (uM) for the EC50, EC90, and CC50. The SI 50 and SI 90 are calculated from the EC50, EC90, and CC50 data.\nas §2"}, "[3]": {"test_system": "HPV-18 (strain: KC470230.1)", "assay": "HPV-18 genome plasmid replication assay in C-33 A cells", "type": "cell-based, human papillomavirus", "conditions": "for EC50 / EC90: host cell line C-33A", "experimental": "as §1, §2, §3"}, "[4]": {"assay": "Cytotoxicity to virus host cell (CC50)", "type": "cell-based, human", "conditions": "human, C-33A host cells"}, "[5]": {"test_system": "HPV-11 (HE611260.1 strain)", "conditions": "HPV-11 replicon assay; reference range; read-out: EC50 value range of the reference compound for this assay; cited from earlier work"}, "[6]": {"test_system": "C-33 A cells", "assay": "Cytotoxicity to virus host cell (CC50)", "type": "cell-based, human"}, "[7]": {"target": "Human neonatal epidermal keratinocytes (HEKn)", "assay": "Transcriptome study (Clariom S) of gene regulation in keratinocytes", "type": "cell-based", "conditions": "20 ug/mL; 24-hour exposure; versus water control", "experimental": "The transcriptome study of copper chlorins was conducted by Sunny Biodiscovery laboratory and Thermo-Fisher Scientific Microarray Research Services Laboratory, both of Santa Clara, California to determine gene regulatory activity and biomarkers associated with activity of the copper chlorins on human skin by assessing gene expression from keratinocyte culture after 24-hour exposure of each of the copper chlorins as previously detailed in U.S. Provisional Application Ser. No. 63/233,229 (filed on Aug. 14, 2021).\nHuman neonatal epidermal keratinocytes (HEKn) were obtained from Cell Applications 5 (San Diego, CA) and were plated in a 96 well plate (Bioland Scientific, Paramount, CA, item #701003 made of high clarity polystyrene) with keratinocyte growth media (Human EpiVita Serum-Free Growth Medium for Neonatal Cells; Cell Applications, San Diego, CA). Cells were mixed with growth media at a rate of 10,000 cells per 200 μl (approximately 10^4 cells per well) and added to the 96 wells (0.2 mL/well) and incubated overnight at 37° C.\nFollowing the overnight incubation of keratinocytes, each of the 4 copper chlorins evaluated was separately dissolved in sterile distilled water at a concentration of 20 mg/mL. Dissolution occurs at 20-25° C. with slight agitation for 1-2 minutes until no solid particles were visible. This stock solution of 20 mg/mL was then further diluted with sterile water to a concentration of 500 μg/mL. The 500 μg/mL solution of each test copper chlorin was added to the cells in the growth media at a ratio of 1:20 (test solution: cells & media) and incubated in the wells for 24 hours at 37° C.\nThe following day the test solution and growth media were removed from the wells and the cells were rinsed with phosphate-buffered saline (PBS). The RNA from the cells treated with each of the test compounds was extracted and purified with a RNeasy Mini Plus Kit (Catalogue #74134; Qiagen, Germantown, MD) with automated lysing and homogenization using a Qiacube Connect robotic station (Qiagen, Germantown, MD). The protocol for RNA extraction is selected on the Qiacube Connect automated station and cell samples, labware, and reagents are loaded as instructed. Cells are first lysed and homogenized in highly denaturing guanidine-isothiocyanate-containing Buffer RLT Plus, which immediately inactivates RNases to ensure isolation of intact RNA. The lysate is passed through Qiacube Connect loaded gDNA Eliminator spin columns, 15 ethanol is added to the flow-through, and the samples are then applied to Qiacube preloaded RNeasy MinElute spin columns. RNA binds to the membrane and contaminants are washed away. High quality RNA is eluted and collected in a total of 30 μL sterile distilled water.\nThe stepwise procedure for production of RNA using RNeasy Plus procedure is outlined FIG. 4. Once collected, the purity of the RNA is assessed with the NanoDrop Lite spectrophotometer (Thermo Fisher Scientific, Waltham, MA) at 260 nm and 280 nm. The NanoDrop Lite unit is a small, stand-alone UV spectrophotometer that is designed 5 to measure microvolumes (1-2 μL) of nucleic acid and protein samples. Purity of the collected RNA was verified by adding 1 μL of the collected RNA to the NanoDrop Lite unit, selecting the RNA application on the NanoDrop Lite Home screen and following the stepwise measuring procedure as detailed in the NanoDrop Lite Manual.\nThe extracted RNA for each of the four treatment compositions evaluated from the above procedure was then transported on dry ice to a laboratory specializing in transcriptome analysis (Thermo Fisher Scientific Microarray Research Services Laboratory, Santa Clara, CA). The transcriptome profiling of the RNA samples was conducted using the Clariom S GeneChip® Pico Assay platform. […]"}, "[8]": {"test_system": "actinic keratosis", "conditions": "cited from earlier work"}}, "note": "Like-named read-outs stand apart in the source and are kept apart here."}
{"compound": "Trisodium copper rhodin g7", "values": [{"measurement": "EC50", "setting": "[1]", "result": 0.36, "unit": "µM"}, {"measurement": "EC90", "setting": "[1]", "result": 1.62, "unit": "µM"}, {"measurement": "EC90", "setting": "[2]", "result": 58.8, "unit": "µM"}, {"measurement": "EC50", "setting": "[2]", "result": 4.48, "unit": "µM"}, {"measurement": "antiviral activity classification based on SI50", "setting": "[3]", "result": "highly active (SI50>50 highly active)"}, {"measurement": "EC50", "setting": "[3]", "result": 1.19, "unit": "µM"}, {"measurement": "EC90", "setting": "[3]", "result": 2.62, "unit": "µM"}]}
{"compound": "Nc1nc2c(ncn2CCOCP(=O)(O)O)c(=O)[nH]1", "note": "[9-[2-(phosphono-methoxy)-ethyl]guanine, reference compound]", "values": [{"measurement": "EC50", "setting": "[1]; Human papillomavirus", "result": 3.92, "unit": "µM"}, {"measurement": "EC90", "setting": "[1]; Human papillomavirus", "result": 18.4, "unit": "µM"}, {"measurement": "CC50", "setting": "[4]; HPV-11 test (Table 1)", "result": "> 150", "unit": "µM"}, {"measurement": "CC50", "setting": "[4]; HPV-18 test (Table 2)", "result": "> 250", "unit": "µM"}, {"measurement": "CC50", "setting": "[4]; HPV-31 test (Table 3)", "result": "> 250", "unit": "µM"}, {"measurement": "EC50", "setting": "[5]", "result": "2 to 9.2", "unit": "µM"}, {"measurement": "EC90", "setting": "[2]; Human papillomavirus", "result": "> 150", "unit": "µM"}, {"measurement": "EC50", "setting": "[2]; Human papillomavirus", "result": 2.27, "unit": "µM"}, {"measurement": "EC50", "setting": "[3]; Human papillomavirus", "result": 2.33, "unit": "µM"}, {"measurement": "EC90", "setting": "[3]; Human papillomavirus", "result": 21.3, "unit": "µM"}]}
{"compound": "C=Cc1c(C)c2cc3nc(c(C(=O)[O-])c4[n-]c(cc5nc(cc1[n-]2)C(C)=C5CC)c(C)c4C(=O)[O-])C(CCC(=O)[O-])C3C.[Cu+2].[Na+].[Na+].[Na+]", "note": "(centres unmarked) [Trisodium copper chlorin p6]", "values": [{"measurement": "CC50", "setting": "[6]", "result": 58.4, "unit": "µM"}, {"measurement": "KDM7A lysine (K)-specific demethylase 7A gene regulation (keratinocytes)", "setting": "[7]", "result": "+2.38 fold"}, {"measurement": "UNC5B Unc-5 netrin receptor B gene regulation (keratinocytes)", "setting": "[7]", "result": "+3.59 fold"}, {"measurement": "EC90", "setting": "[2]", "result": 23.6, "unit": "µM"}, {"measurement": "EC50", "setting": "[2]", "result": 5.51, "unit": "µM"}]}
{"compound": "C=Cc1c(C)c2cc3nc(c(CC(=O)[O-])c4[n-]c(cc5nc(cc1[n-]2)C(C)=C5CC)c(C)c4C(=O)[O-])C(CCC(=O)[O-])C3C.[Cu+2].[Na+].[Na+].[Na+]", "note": "(centres unmarked) [Trisodium copper chlorin e6]", "values": [{"measurement": "antiviral activity classification based on SI50", "setting": "[1]", "result": "moderately active (SI50=10−49, moderately active)"}, {"measurement": "EC50", "setting": "[1]", "result": 1.75, "unit": "µM"}, {"measurement": "EC90", "setting": "[1]", "result": 3.8, "unit": "µM"}, {"measurement": "CDKN1A cyclin-dependent kinase inhibitor 1A (p21, Cip1) gene regulation (keratinocytes)", "setting": "[7]", "result": "+2.22 fold"}, {"measurement": "CYB561 Cytochrome b561 gene regulation (keratinocytes)", "setting": "[7]", "result": "−2.28", "unit": "fold"}, {"measurement": "EPGN Epithelial mitogen gene regulation (keratinocytes)", "setting": "[7]", "result": "−2.56", "unit": "fold"}, {"measurement": "MAPK14 Mitogen-activated protein kinase 14 gene regulation (keratinocytes)", "setting": "[7]", "result": "−2.23", "unit": "fold"}, {"measurement": "EC50 converted from micromoles", "setting": "[2]; converted with molecular weight 724.15", "result": 1.998, "unit": "µg/mL"}, {"measurement": "EC90", "setting": "[2]", "result": 24.9, "unit": "µM"}, {"measurement": "EC50", "setting": "[2]", "result": 2.76, "unit": "µM"}, {"measurement": "EC50", "setting": "[3]", "result": 1.42, "unit": "µM"}, {"measurement": "EC90", "setting": "[3]", "result": 2.97, "unit": "µM"}]}
{"compound": "Disodium copper isochlorin e4", "values": [{"measurement": "EC50", "setting": "[1]", "result": 0.25, "unit": "µM"}, {"measurement": "EC90", "setting": "[1]", "result": 4.45, "unit": "µM"}, {"measurement": "CDKN1A cyclin-dependent kinase inhibitor 1A (p21, Cip1) gene regulation (keratinocytes)", "setting": "[7]", "result": "+2.46 fold"}, {"measurement": "EPGN Epithelial mitogen gene regulation (keratinocytes)", "setting": "[7]", "result": "−3.17", "unit": "fold"}, {"measurement": "KDM7A lysine (K)-specific demethylase 7A gene regulation (keratinocytes)", "setting": "[7]", "result": "+2.62 fold"}, {"measurement": "UNC5B Unc-5 netrin receptor B gene regulation (keratinocytes)", "setting": "[7]", "result": "+8.06 fold"}, {"measurement": "EC90", "setting": "[2]", "result": 20.6, "unit": "µM"}, {"measurement": "EC50", "setting": "[2]", "result": 4.63, "unit": "µM"}, {"measurement": "EC50", "setting": "[3]", "result": 3.2, "unit": "µM"}, {"measurement": "EC90", "setting": "[3]", "result": 6.09, "unit": "µM"}]}
{"compound": "O=C(Cc1ccc(-c2ccc(OCCN3CCOCC3)cc2)cn1)NCc1ccccc1", "note": "[turbanibulin]", "values": [{"measurement": "sustained complete clearance", "setting": "[8]; after one year, estimated", "result": "~27", "unit": "%"}, {"measurement": "Initial complete clearance", "setting": "[8]; trial 1 vs trial 2", "result": "44-54%"}]}
{"compound": "O=C(O)Cc1ccccc1Nc1c(Cl)cccc1Cl", "note": "[diclofenac]", "values": [{"measurement": "AK recurrence rate", "setting": "[8]; after 12 months from initial treatments", "result": 85, "unit": "%"}]}
